Laboratory results published in US9598359B2, “Sulfonates from natural oil metathesis” (priority 2010, dated 2017).

conditions: Adjuvant (anionic/nonionic) test sample

Row | Compound | Emulsion stability, mL separation, 1 h [mL]
1 | C=CCCCCCCCC(=O)OC(CCCCCCCC(=O)[O-])CS(=O)(=O)[O-].[Na+].[Na+] (centres unmarked) [C10-32, C10 UFA SLA] | 0

same assay, conditions: Adjuvant (anionic/nonionic) test sample; Tr = trace

Row | Compound | Emulsion stability, mL separation, 24 h
2 | C=CCCCCCCCC(=O)OC(CCCCCCCC(=O)[O-])CS(=O)(=O)[O-].[Na+].[Na+] (centres unmarked) [C10-32, C10 UFA SLA] | Tr

same assay, conditions: Anionic test sample

Row | Compound | Emulsion stability, mL separation, 1 h [mL] | Emulsion stability, mL separation, 24 h [mL]
3 | C=CCCCCCCCC(=O)OC(CCCCCCCC(=O)[O-])CS(=O)(=O)[O-].[Na+].[Na+] (centres unmarked) [C10-32, C10 UFA SLA] | 0 | 0

same assay, conditions: Anionic test sample; 342 ppm water, 30° C.

Row | Compound | sol (solubility)
4 | C=CCCCCCCCC(=O)OC(CCCCCCCC(=O)[O-])CS(=O)(=O)[O-].[Na+].[Na+] (centres unmarked) [C10-32, C10 UFA SLA] | S

same assay, conditions: Nonionic test sample

Row | Compound | Emulsion stability, mL separation, 1 h [mL] | Emulsion stability, mL separation, 24 h [mL]
5 | C=CCCCCCCCC(=O)OC(CCCCCCCC(=O)[O-])CS(=O)(=O)[O-].[Na+].[Na+] (centres unmarked) [C10-32, C10 UFA SLA] | 1 | 1

type: physicochemical; design: key to Spont. (spontaneity or bloom): E (excellent); G (good); F (fair); P (poor); conditions: 34 ppm water

Row | Compound | Spont. (spontaneity or bloom)
6 | C=CCCCCCCCC(=O)OC(CCCCCCCC(=O)[O-])CS(=O)(=O)[O-].[Na+].[Na+] (centres unmarked) [C10-32, C10 UFA SLA] | F
7 | CCCCCCCCCC(=O)OC(CCCCCCCC(=O)OC)CS(=O)(=O)[O-].[Na+] (centres unmarked) [C10-35, C10 UME C10 FA (60:40) SLA] | F
8 | CCCCCCCCCCCC(=O)OC(CCCCCCCC(=O)[O-])C(CC)S(=O)(=O)[O-].[Na+].[Na+] (centres unmarked) [C12-35, C12 UFA C12 FA (80:20) SLA] | F
9 | CCCCCCCCCCCCCCCCCC(=O)OC(CCCCCCCC(=O)[O-])C(CC)S(=O)(=O)[O-].[Na+].[Na+] (centres unmarked) [C12-36, C12 UFA C18 FA (80:20) SLA] | F
10 | CCCCCCCCCCCC(=O)OC(CCCCCCCC(=O)OC)C(CC)S(=O)(=O)[O-].[Na+] (centres unmarked) [C12-37, C12 UME C12 FA (60:40) SLA] | F
11 | CCCCCCCCCC(=O)OC(CCCCCCCC(=O)OC)C(CCCCCCCC(=O)OC)S(=O)(=O)[O-].[Na+] (centres unmarked) [C18-63, DBE C10 FA (60:40) SLA] | F
12 | CCCCCCCCCC(=O)OC(CCCCCCCC(=O)OC)C(CCCCCCCC(=O)OC)S(=O)(=O)[O-].[Na+] (centres unmarked) [C18-64, DBE C10 FA (75:25) SLA] | F−

same assay, conditions: 34 ppm water; C = cream

Row | Compound | % Separation, 1 h [%] | % Separation, 24 h
13 | C=CCCCCCCCC(=O)OC(CCCCCCCC(=O)[O-])CS(=O)(=O)[O-].[Na+].[Na+] (centres unmarked) [C10-32, C10 UFA SLA] | 3 | 3.9%
14 | CCCCCCCCCC(=O)OC(CCCCCCCC(=O)OC)CS(=O)(=O)[O-].[Na+] (centres unmarked) [C10-35, C10 UME C10 FA (60:40) SLA] | 3 | 3%
15 | CCCCCCCCCCCC(=O)OC(CCCCCCCC(=O)[O-])C(CC)S(=O)(=O)[O-].[Na+].[Na+] (centres unmarked) [C12-35, C12 UFA C12 FA (80:20) SLA] | 3.8 | 5 C, %
16 | CCCCCCCCCCCCCCCCCC(=O)OC(CCCCCCCC(=O)[O-])C(CC)S(=O)(=O)[O-].[Na+].[Na+] (centres unmarked) [C12-36, C12 UFA C18 FA (80:20) SLA] | 3.8 | 4.5 C, %
17 | CCCCCCCCCCCC(=O)OC(CCCCCCCC(=O)OC)C(CC)S(=O)(=O)[O-].[Na+] (centres unmarked) [C12-37, C12 UME C12 FA (60:40) SLA] | 3 | 4 C, %
18 | CCCCCCCCCC(=O)OC(CCCCCCCC(=O)OC)C(CCCCCCCC(=O)OC)S(=O)(=O)[O-].[Na+] (centres unmarked) [C18-63, DBE C10 FA (60:40) SLA] | 3.1 | 3 C, %
19 | CCCCCCCCCC(=O)OC(CCCCCCCC(=O)OC)C(CCCCCCCC(=O)OC)S(=O)(=O)[O-].[Na+] (centres unmarked) [C18-64, DBE C10 FA (75:25) SLA] | 3.2 | 2.5 C, %

same assay, conditions: 34 ppm water; O = oil separated, Tr = trace of oil

Row | Compound | % Separation, 24 h, oil
20 | CCCCCCCCCCCC(=O)OC(CCCCCCCC(=O)[O-])C(CC)S(=O)(=O)[O-].[Na+].[Na+] (centres unmarked) [C12-35, C12 UFA C12 FA (80:20) SLA] | Tr
21 | CCCCCCCCCCCCCCCCCC(=O)OC(CCCCCCCC(=O)[O-])C(CC)S(=O)(=O)[O-].[Na+].[Na+] (centres unmarked) [C12-36, C12 UFA C18 FA (80:20) SLA] | Tr
22 | CCCCCCCCCCCC(=O)OC(CCCCCCCC(=O)OC)C(CC)S(=O)(=O)[O-].[Na+] (centres unmarked) [C12-37, C12 UME C12 FA (60:40) SLA] | <1 O %
23 | CCCCCCCCCC(=O)OC(CCCCCCCC(=O)OC)C(CCCCCCCC(=O)OC)S(=O)(=O)[O-].[Na+] (centres unmarked) [C18-63, DBE C10 FA (60:40) SLA] | 1 O %
24 | CCCCCCCCCC(=O)OC(CCCCCCCC(=O)OC)C(CCCCCCCC(=O)OC)S(=O)(=O)[O-].[Na+] (centres unmarked) [C18-64, DBE C10 FA (75:25) SLA] | 1 O %

same assay, conditions: 1000 ppm water

Row | Compound | Spont. (spontaneity or bloom)
25 | C=CCCCCCCCC(=O)OC(CCCCCCCC(=O)[O-])CS(=O)(=O)[O-].[Na+].[Na+] (centres unmarked) [C10-32, C10 UFA SLA] | F
26 | CCCCCCCCCC(=O)OC(CCCCCCCC(=O)OC)CS(=O)(=O)[O-].[Na+] (centres unmarked) [C10-35, C10 UME C10 FA (60:40) SLA] | F
27 | CCCCCCCCCCCC(=O)OC(CCCCCCCC(=O)[O-])C(CC)S(=O)(=O)[O-].[Na+].[Na+] (centres unmarked) [C12-35, C12 UFA C12 FA (80:20) SLA] | F
28 | CCCCCCCCCCCCCCCCCC(=O)OC(CCCCCCCC(=O)[O-])C(CC)S(=O)(=O)[O-].[Na+].[Na+] (centres unmarked) [C12-36, C12 UFA C18 FA (80:20) SLA] | F
29 | CCCCCCCCCCCC(=O)OC(CCCCCCCC(=O)OC)C(CC)S(=O)(=O)[O-].[Na+] (centres unmarked) [C12-37, C12 UME C12 FA (60:40) SLA] | F
30 | CCCCCCCCCC(=O)OC(CCCCCCCC(=O)OC)C(CCCCCCCC(=O)OC)S(=O)(=O)[O-].[Na+] (centres unmarked) [C18-63, DBE C10 FA (60:40) SLA] | F
31 | CCCCCCCCCC(=O)OC(CCCCCCCC(=O)OC)C(CCCCCCCC(=O)OC)S(=O)(=O)[O-].[Na+] (centres unmarked) [C18-64, DBE C10 FA (75:25) SLA] | F−

same assay, conditions: 1000 ppm water; C = cream

Row | Compound | % Separation, 1 h [%] | % Separation, 24 h
32 | C=CCCCCCCCC(=O)OC(CCCCCCCC(=O)[O-])CS(=O)(=O)[O-].[Na+].[Na+] (centres unmarked) [C10-32, C10 UFA SLA] | 2.5 | 3%
33 | CCCCCCCCCC(=O)OC(CCCCCCCC(=O)OC)CS(=O)(=O)[O-].[Na+] (centres unmarked) [C10-35, C10 UME C10 FA (60:40) SLA] | 3.4 | 4%
34 | CCCCCCCCCCCC(=O)OC(CCCCCCCC(=O)[O-])C(CC)S(=O)(=O)[O-].[Na+].[Na+] (centres unmarked) [C12-35, C12 UFA C12 FA (80:20) SLA] | 3 | 4 C, %
35 | CCCCCCCCCCCCCCCCCC(=O)OC(CCCCCCCC(=O)[O-])C(CC)S(=O)(=O)[O-].[Na+].[Na+] (centres unmarked) [C12-36, C12 UFA C18 FA (80:20) SLA] | 3.6 | 4 C, %
36 | CCCCCCCCCCCC(=O)OC(CCCCCCCC(=O)OC)C(CC)S(=O)(=O)[O-].[Na+] (centres unmarked) [C12-37, C12 UME C12 FA (60:40) SLA] | 3 | 3 C, %
37 | CCCCCCCCCC(=O)OC(CCCCCCCC(=O)OC)C(CCCCCCCC(=O)OC)S(=O)(=O)[O-].[Na+] (centres unmarked) [C18-63, DBE C10 FA (60:40) SLA] | 3 | 2.5 C, %
38 | CCCCCCCCCC(=O)OC(CCCCCCCC(=O)OC)C(CCCCCCCC(=O)OC)S(=O)(=O)[O-].[Na+] (centres unmarked) [C18-64, DBE C10 FA (75:25) SLA] | 3.7 | 3 C, %

same assay, conditions: 1000 ppm water; O = oil separated, Tr = trace of oil

Row | Compound | % Separation, 24 h, oil
39 | CCCCCCCCCCCC(=O)OC(CCCCCCCC(=O)[O-])C(CC)S(=O)(=O)[O-].[Na+].[Na+] (centres unmarked) [C12-35, C12 UFA C12 FA (80:20) SLA] | Tr
40 | CCCCCCCCCCCCCCCCCC(=O)OC(CCCCCCCC(=O)[O-])C(CC)S(=O)(=O)[O-].[Na+].[Na+] (centres unmarked) [C12-36, C12 UFA C18 FA (80:20) SLA] | Tr
41 | CCCCCCCCCCCC(=O)OC(CCCCCCCC(=O)OC)C(CC)S(=O)(=O)[O-].[Na+] (centres unmarked) [C12-37, C12 UME C12 FA (60:40) SLA] | 1 O %
42 | CCCCCCCCCC(=O)OC(CCCCCCCC(=O)OC)C(CCCCCCCC(=O)OC)S(=O)(=O)[O-].[Na+] (centres unmarked) [C18-63, DBE C10 FA (60:40) SLA] | 1 O %
43 | CCCCCCCCCC(=O)OC(CCCCCCCC(=O)OC)C(CCCCCCCC(=O)OC)S(=O)(=O)[O-].[Na+] (centres unmarked) [C18-64, DBE C10 FA (75:25) SLA] | 1 O %
